The data set is described as follows: Hydrolysis in human articular synovia. Format: in vitro ADME. The note with it: for metabolised at 1 h: human, articular synovia, 60 minutes at 37° C., read-out: Hydrolysis rate. As for the experimental part: Into 1 ml of articular synovia of a patient with rheumatoid or osteoarthritis, was added 10 ml of an acetone solution of ethyl 2-(2-fluoro-4-biphenylyl)propionate(ethyl flurbiprofen ester: compound 1) or acetoxymethyl 2-(2-fluoro-4-biphenylyl)propionate(acetoxymethyl flurbiprofen ester; compound 2) (each being contained in an equimolar amount to 50 ng of flurbiprofen), respectively, and the mixture was incubated for 60 minutes at 37° C. The concentration of flurbiprofen formed by hydrolysis was then determined by gas chromatography.

Read-outs that look alike come from different tables or passages of the source.

Turning to `CCOC(=O)C(C)c1ccc(-c2ccccc2)c(F)c1` (stereo not drawn) [Compound 1, ethyl 2-(2-fluoro-4-biphenylyl)propionate], the “hydrolysis in human articular synovia (in words)” value is given as “substantially not hydrolyzed”. Under “patient five (Rheumatoid)”, the metabolised at 1 h came to 0%. The metabolised at 1 h (patient four (Rheumatoid)) worked out at 0%. The metabolised at 1 h (patient one (Rheumatoid)) came out at 25.8%. The metabolised at 1 h (patient three (Osteoarthritis)) was found to be 0%. For the same molecule, the metabolised at 1 h (patient two (Unknown)) amounted to 2%.
Take `CC(=O)OCOC(=O)C(C)c1ccc(-c2ccccc2)c(F)c1` (stereo not drawn) [Compound 2, acetoxymethyl 2-(2-fluoro-4-biphenylyl)propionate]: the “hydrolysis in human articular synovia (in words)” value is listed as “effectively hydrolyzed”. Also, the metabolised at 1 h (patient five (Rheumatoid)) turned out to be 65.7%. For the same molecule, the metabolised at 1 h (patient four (Rheumatoid)) turned out to be 64.1%. Also, the metabolised at 1 h (patient one (Rheumatoid)) came out at 91.3%. Besides, the metabolised at 1 h (patient three (Osteoarthritis)) is 64.7%. Moreover, for the setting “patient two (Unknown)”, the metabolised at 1 h was 84.4%.

The record behind these values is patent publication US4613505A, “Ester of flurbiprofen and emulsion containing the same” (The Green Cross Corporation, priority 1983, dated 1986).
